Experimental data taken from ChEMBL document CHEMBL4495565, “Cytopathic SARS-Cov2 screening on VERO-E6 cells in a large repurposing effort” (2020).
Values joined by “and” are separate entries in the source; they are usually repeats but may differ in a detail not shown here. Identical values can stand only once. Counter-ions that a name gives are not always drawn.

System: SARS-CoV-2
Test: microbe, parasite or virus in culture
Assay type: functional, organism-based, Chlorocebus sabaeus, Vero C1008
Conditions: Severe acute respiratory syndrome coronavirus 2, Vero C1008, 48 h

SMILES	IC50 [µM]
CCN1CCC(n2cc(CNc3cc(Cl)c4ncc(C#N)c(Nc5ccc(F)c(Cl)c5)c4c3)nn2)CC1	16.6
CCCCn1c(NC(=O)c2cccs2)c(C#N)c2nc3ccccc3nc21	19.7
C#CCC(Cc1cnc2nc(N)nc(N)c2n1)c1ccc(C(=O)N[C@@H](CCC(=O)O)C(=O)O)cc1 (stereo partly drawn) [PRALATREXATE]	0.06
CC[C@@]1([C@H]2O[C@H]([C@H]3O[C@@](O)(CO)[C@H](C)C[C@@H]3C)C[C@H]2C)CC[C@H]([C@@]2(C)CC[C@]3(C[C@H](O)[C@@H](C)[C@@H]([C@H](C)[C@H](OC)[C@@H](C)C(=O)O)O3)O2)O1 [MONENSIN SODIUM]	3.18

Same assay, conditions: vero c1008

SMILES	IC50
COc1c(C)c2c(c(O)c1C/C=C(\C)CCC(=O)O)C(=O)OC2 [MYCOPHENOLIC ACID]	3.43 µM and 11.1 µM and > 33 µM

System: not listed separately
Test: in vitro
Conditions: chlorocebus sabaeus, VERO-E6 cells (Vero C1008), uninfected, CC50

SMILES	CC50 at 48 h [µM]
COc1ccccc1[C@H](Cn1c(=O)n(C(C)(C)C(=O)O)c(=O)c2c(C)c(-c3ncco3)sc21)OC1CCOCC1 [FIRSOCOSTAT]	0.11
CN1CCN(CC/C=C2\c3ccccc3Sc3ccc(S(=O)(=O)N(C)C)cc32)CC1	> 33
COc1ccc2cc1Oc1ccc(cc1)C[C@H]1c3cc(c(OC)cc3CCN1C)Oc1c(OC)c(OC)cc3c1[C@H](C2)N(C)CC3 [FANCHININ]	> 33
COc1cc2c(NC3CCN(C(C)C)CC3)nc(N3CCC(F)(F)CC3)nc2cc1OCCCN1CCCC1	> 33
COc1cc(NCc2ccc3nc(N)nc(N)c3c2C)cc(OC)c1OC [TRIMETREXATE]	1.99
Nc1ccc2cc3ccc(N)cc3nc2c1 [PROFLAVINE]	2.67
CC(C)(Sc1cc(C(C)(C)C)c(O)c(C(C)(C)C)c1)Sc1cc(C(C)(C)C)c(OC(=O)CCC(=O)O)c(C(C)(C)C)c1 [SUCCINOBUCOL]	10.2
Nc1ncc(-c2ccnc(Nc3ccncc3)n2)c(CC2CC2)n1	2.11
OCCNC1CCCc2c1[nH]c1ccc(-c3ccccc3)cc21 (stereo not drawn)	> 33
O=C(Nc1ccc(Cl)cc1)Nc1ccc(Cl)c(Cl)c1 [TRICLOCARBAN]	3.08
N=C(Nc1ccc(I)cc1)NC1C2CC3CC(C2)CC1C3 (stereo not drawn)	> 33
O=C(NCCN1CCC2(CC1)C(=O)NCN2c1cccc(F)c1)c1ccc2ccccc2c1	> 33
Cc1ccc(NC(=O)c2ccc(CN3CCN(C)CC3)cc2)cc1Nc1nc(-c2cccnc2)cs1 [MASITINIB]	> 33
CC(C)(O)CNc1ncc(-c2ccnc(Nc3ccnc(Cl)c3)n2)c(CC2CC2)n1	26.8
Nc1ccc(C(=O)Nc2cccc(-c3nc(N4CCOCC4)c4oc5ncccc5c4n3)c2)cn1	0.01
CC(C)COCC(CN(Cc1ccccc1)c1ccccc1)N1CCCC1 (stereo not drawn)	23.4
CCN(CC)CCOc1ccc2c(c1)C(=O)c1cc(OCCN(CC)CC)ccc1-2 [TILORONE]	3.08
O=C(Nc1ccc(Cl)c(Cl)c1)Nc1ccc(Cl)c(Cl)c1	> 33
Cn1nc(C(C)(C)C)cc1C(=O)N[C@@H](Cc1cccc(Cl)c1)C(=O)NCC#N	0.03
Cn1cc(-c2ccncc2)c(-c2ccc(OCc3ccc4ccccc4n3)cc2)n1 [MARDEPODECT]	> 33
CN(C)C(=O)C(CCN1CCC(O)(c2ccc(Cl)cc2)CC1)(c1ccccc1)c1ccccc1 [LOPERAMIDE]	> 33
Nc1nc(N)c2nc(CNc3ccc(C(=O)N[C@@H](CCC(=O)O)C(=O)O)cc3)cnc2n1 [AMINOPTERIN]	0.03
CCCCN(CCCC)CCC(O)c1cc2c(Cl)cc(Cl)cc2c2cc(C(F)(F)F)ccc12 (stereo not drawn) [HALOFANTRINE]	> 33
CC1(N2CCC(n3c([C@@H]4CCCNC4)nc4ccccc43)CC2)CCCCCCC1	> 33
Cc1cc(O[C@@H](CCC(F)(F)F)c2ccc(C(=O)NCCC(=O)O)cc2)cc(C)c1-c1ccc(C(C)(C)C)cc1 [ADOMEGLIVANT]	> 33
O=C(CCCN1CCC2(CC1)C(=O)N(Cc1cccc(F)c1)CN2c1ccccc1)c1ccc(F)cc1	27.4

SMILES	CC50 at 48 h [µM]
O=C(O)Cc1cccc(OCCCN(Cc2cccc(C(F)(F)F)c2Cl)CC(c2ccccc2)c2ccccc2)c1	> 33
c1cncc(CN2CCC(n3ncc4c(N5CCOCC5)nc(-c5ccc6[nH]ccc6c5)nc43)CC2)c1	9.55
COc1cc2c(N3CCN(C(=O)Nc4ccc(OC(C)C)cc4)CC3)ncnc2cc1OCCCN1CCCCC1 [TANDUTINIB]	> 33
CN1CCN(CCCN2c3ccccc3Sc3ccc(C(F)(F)F)cc32)CC1 [TRIFLUOPERAZINE HYDROCHLORIDE]	> 33
O=S(=O)(NCC1CC1)c1ccc(Nc2nccc(N3CCCc4cc(O)ccc43)n2)cc1	0.74
Nc1nc2c(ncn2[C@@H]2O[C@H](CO)[C@@H](O)[C@H]2O)c(=S)[nH]1 [THIOGUANOSINE]	> 33
CC(C)N1CCN(c2ccc(C(=O)c3c(-c4ccc(O)cc4)sc4cc(O)ccc34)cc2)CC1	> 33
COc1cc2ncnc(Nc3cccc(Br)c3)c2cc1OC	13.2
Cc1c(O)cccc1C(=O)N[C@@H](CSc1ccccc1)[C@H](O)CN1C[C@H]2CCCC[C@H]2C[C@H]1C(=O)NC(C)(C)C [NELFINAVIR MESYLATE]	> 33
Cc1[nH]c(/C=C2\C(=O)Nc3ccc(S(=O)(=O)Cc4c(Cl)cccc4Cl)cc32)c(C)c1C(=O)N1CCC[C@@H]1CN1CCCC1 [PHA-665752]	> 33
C[C@H]1CCC/C=C/[C@@H]2C[C@H](O)C[C@H]2[C@H](O)/C=C/C(=O)O1 [BREFELDIN A]	0.06
Oc1c(Cl)cc(Cl)cc1Sc1cc(Cl)cc(Cl)c1O [BITHIONOL]	9.94
C[C@@H]1C[C@@H]([C@H](O)CC2CC(=O)NC(=O)C2)C(=O)[C@@H](C)C1 [CYCLOHEXIMIDE]	10.2
Nc1nc(NC[C@H]2CC[C@H](CNS(=O)(=O)c3cccc4ccccc34)CC2)nc2ccccc12 [CGP-71683A]	4.38
N#Cc1cccc(C#N)c1-c1nc2c3ccc(Cl)cc3c3ccccc3c2[nH]1	> 33
COc1ccc2c(c1)[C@]1(C[C@H]1c1ccc3c(/C=C/c4ccc(CN5C[C@@H](C)O[C@@H](C)C5)cc4)n[nH]c3c1)C(=O)N2 [OCIFISERTIB]	> 33
Nc1ncnc2c1ncn2[C@@H]1CC[C@@H](O)[C@H]1O	15.7
CC(C)(C)NCc1ccc(Nc2ccnc3cc(Cl)ccc23)cc1O [GSK-369796]	12.4
Cc1cccc(Nc2nc(-c3ccncc3)cs2)c1	31.5
O=C1Nc2cc(Br)ccc2/C1=C1/Nc2ccccc2/C1=N\O [6BIO]	> 33
CC(C)c1cnn2c(NCc3ccccc3)cc(NCCCCCCN)nc12	> 33
O=[N+]([O-])c1ccc(NN=Cc2sc(N3CCOCC3)nc2-c2ccccc2)c(S(=O)(=O)Nc2ccccc2Cl)c1	0.43
Cn1c(Nc2ccc(C(F)(F)F)cc2)nc2cc(Oc3ccnc(-c4ncc(C(F)(F)F)[nH]4)c3)ccc21 [RAF-265]	9.19
Cc1nc(N)nc(N)c1-c1ccc(Cl)c(Cl)c1 [METOPRINE]	0.12
Cc1ccc(C(=O)Nc2cccc(C(F)(F)F)c2)cc1Nc1nc(-c2cccnc2)nc2c1cnn2C	0.07
CCN(CC)CCO[C@H]1CC[C@@]2(C)C(=CC[C@@H]3[C@@H]2CC[C@]2(C)C(=O)CC[C@@H]32)C1	3.43

Same assay, conditions: chlorocebus sabaeus, vero c1008, CC50

SMILES	CC50 at 48 h [µM]
CCN(CC)CCOc1ccc(C(=C(Cl)c2ccccc2)c2ccccc2)cc1 [CLOMIPHENE CITRATE]	> 33
